Consider 12 molecules from ChEMBL document CHEMBL4052703, “Cyclic tetrapeptide HDAC inhibitors as potential therapeutics for spinal muscular atrophy: Screening with iPSC-derived neuronal cells” (Bioorg Med Chem Lett, 2017).

Each structure is given as a SMILES string. The source made the active and inactive calls. The rule behind the calls is not given here. Square brackets hold non-standard residues; d marks the D form. Peptide text beside a SMILES is read from it. * marks the point of attachment. 1Nal = N[C@@H](Cc1cccc2ccccc12)C(=O)O; Asu = N[C@@H](CCCCCC(=O)O)C(=O)O; β3hL = CC(C)C[C@H](N)CC(=O)O; Nva = CCC[C@H](N)C(=O)O; NHOH = ON*

For series [1], the species on record is Homo sapiens. Kind of series: Increase in SMN2 mRNA expression in induced pluripotent stem cell derived from human GM03813 cells isolated from SMA patient homozygous for deletion of exons 7 and 8 in SMN1 gene and containing 3 SMN2 gene copies at 1 uM by PCR assay relative to untreated control.
Series [2] can be described thus: Toxicity against induced pluripotent stem cell derived from human GM03813 cells isolated from SMA patient homozygous for deletion of exons 7 and 8 in SMN1 gene and containing 3 SMN2 gene copies assessed as reduction in SMN2 protein level at 10 uM. The series is classed as cell-based. To be noted: induced pluripotent stem cell-derived neuron.
The species named for series [3] is Homo sapiens. Kind of series: Increase in […] in induced pluripotent stem cell derived from human GM03813 cells isolated from SMA patient homozygous for deletion of exons 7 and 8 in SMN1 gene and containing 3 SMN2 gene copies assessed as increase in SMN protein aggregates (Gems) at 5 uM incubated for 48 hrs by confocal microscopy.
Series [4] has as its target T1, Protein deacetylase HDAC6 (Homo sapiens, UniProt Q9UBN7).
T1 sequence (Q9UBN7 whole entry): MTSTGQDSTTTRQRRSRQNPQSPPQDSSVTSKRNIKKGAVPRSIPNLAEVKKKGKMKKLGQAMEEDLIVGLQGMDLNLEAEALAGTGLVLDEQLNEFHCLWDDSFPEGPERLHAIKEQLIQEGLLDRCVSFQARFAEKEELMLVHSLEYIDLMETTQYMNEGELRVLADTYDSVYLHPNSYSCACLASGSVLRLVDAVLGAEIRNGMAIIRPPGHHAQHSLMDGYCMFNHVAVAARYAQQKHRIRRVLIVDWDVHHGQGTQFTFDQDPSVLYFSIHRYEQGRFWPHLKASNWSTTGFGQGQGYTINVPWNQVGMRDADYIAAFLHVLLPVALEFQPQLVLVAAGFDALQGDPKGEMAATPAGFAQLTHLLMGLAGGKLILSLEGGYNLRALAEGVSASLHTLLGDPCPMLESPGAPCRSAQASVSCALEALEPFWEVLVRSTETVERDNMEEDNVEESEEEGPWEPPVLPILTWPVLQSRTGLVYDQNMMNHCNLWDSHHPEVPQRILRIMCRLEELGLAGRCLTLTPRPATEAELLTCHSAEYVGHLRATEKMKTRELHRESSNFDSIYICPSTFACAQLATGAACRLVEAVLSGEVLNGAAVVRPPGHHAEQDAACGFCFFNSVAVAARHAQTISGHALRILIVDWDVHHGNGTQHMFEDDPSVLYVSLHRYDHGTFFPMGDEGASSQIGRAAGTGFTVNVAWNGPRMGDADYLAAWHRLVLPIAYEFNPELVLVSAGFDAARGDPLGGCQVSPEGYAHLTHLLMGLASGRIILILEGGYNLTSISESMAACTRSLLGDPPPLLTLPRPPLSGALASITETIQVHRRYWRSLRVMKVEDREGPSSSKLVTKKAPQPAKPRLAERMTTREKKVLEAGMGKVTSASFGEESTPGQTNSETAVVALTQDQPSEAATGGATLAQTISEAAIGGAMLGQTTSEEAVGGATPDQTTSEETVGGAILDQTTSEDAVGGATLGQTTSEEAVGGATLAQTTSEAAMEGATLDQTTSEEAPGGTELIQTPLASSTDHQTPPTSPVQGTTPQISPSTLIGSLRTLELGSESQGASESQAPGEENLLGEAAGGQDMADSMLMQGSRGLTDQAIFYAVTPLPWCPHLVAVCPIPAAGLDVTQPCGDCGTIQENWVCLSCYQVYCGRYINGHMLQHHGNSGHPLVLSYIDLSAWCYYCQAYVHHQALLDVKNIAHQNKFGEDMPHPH
Kind of series: Inhibition of HDAC6 (unknown origin).

The species named for series [5] is Homo sapiens. Kind of series: Increase in SMN2 mRNA expression in induced pluripotent stem cell derived from human GM03813 cells isolated from SMA patient homozygous for deletion of exons 7 and 8 in SMN1 gene and containing 3 SMN2 gene copies at 0.1 to 5 uM by PCR assay relative to untreated control.
For series [6], the species on record is Homo sapiens. Kind of series: Increase in SMN2 mRNA expression in induced pluripotent stem cell derived from human GM03813 cells isolated from SMA patient homozygous for deletion of exons 7 and 8 in SMN1 gene and containing 3 SMN2 gene copies at 0.1 uM by PCR assay relative to untreated control.
The target in a further series is T2, Histone deacetylase 8 (Homo sapiens, UniProt Q9BY41).
T2 sequence (Q9BY41 whole entry): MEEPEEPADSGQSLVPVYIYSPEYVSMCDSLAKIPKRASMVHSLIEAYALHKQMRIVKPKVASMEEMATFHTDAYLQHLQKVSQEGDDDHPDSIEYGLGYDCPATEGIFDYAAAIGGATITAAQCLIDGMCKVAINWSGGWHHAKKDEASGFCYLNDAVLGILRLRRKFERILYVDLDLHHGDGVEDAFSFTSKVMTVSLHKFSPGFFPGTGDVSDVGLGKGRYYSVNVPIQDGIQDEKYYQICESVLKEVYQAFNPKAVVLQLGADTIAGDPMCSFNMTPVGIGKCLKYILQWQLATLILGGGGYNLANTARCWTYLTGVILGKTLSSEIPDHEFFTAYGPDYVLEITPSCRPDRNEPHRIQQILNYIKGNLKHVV
Kind of series: Inhibition of HDAC8 (unknown origin).

The next series concerns the target Histone deacetylase 2 (Homo sapiens, UniProt Q92769). Kind of series: Inhibition of HDAC2 (unknown origin).
For the next series, the target named is Histone deacetylase 3 (Homo sapiens, UniProt O15379). Kind of series: Inhibition of HDAC3 (unknown origin).
Chain of Histone deacetylase 3 (O15379 whole entry): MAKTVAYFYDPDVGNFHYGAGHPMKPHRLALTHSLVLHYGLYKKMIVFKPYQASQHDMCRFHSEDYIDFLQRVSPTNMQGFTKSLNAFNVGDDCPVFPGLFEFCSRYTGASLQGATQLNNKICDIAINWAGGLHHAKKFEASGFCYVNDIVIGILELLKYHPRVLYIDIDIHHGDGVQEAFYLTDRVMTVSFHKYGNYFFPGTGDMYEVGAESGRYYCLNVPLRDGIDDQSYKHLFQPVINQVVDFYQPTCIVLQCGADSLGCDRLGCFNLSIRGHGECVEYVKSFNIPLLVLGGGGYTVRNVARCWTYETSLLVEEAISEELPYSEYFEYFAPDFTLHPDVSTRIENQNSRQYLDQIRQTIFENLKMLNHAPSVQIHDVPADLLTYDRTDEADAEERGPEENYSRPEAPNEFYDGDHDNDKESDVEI

Chain of Histone deacetylase 2 (Q92769 whole entry): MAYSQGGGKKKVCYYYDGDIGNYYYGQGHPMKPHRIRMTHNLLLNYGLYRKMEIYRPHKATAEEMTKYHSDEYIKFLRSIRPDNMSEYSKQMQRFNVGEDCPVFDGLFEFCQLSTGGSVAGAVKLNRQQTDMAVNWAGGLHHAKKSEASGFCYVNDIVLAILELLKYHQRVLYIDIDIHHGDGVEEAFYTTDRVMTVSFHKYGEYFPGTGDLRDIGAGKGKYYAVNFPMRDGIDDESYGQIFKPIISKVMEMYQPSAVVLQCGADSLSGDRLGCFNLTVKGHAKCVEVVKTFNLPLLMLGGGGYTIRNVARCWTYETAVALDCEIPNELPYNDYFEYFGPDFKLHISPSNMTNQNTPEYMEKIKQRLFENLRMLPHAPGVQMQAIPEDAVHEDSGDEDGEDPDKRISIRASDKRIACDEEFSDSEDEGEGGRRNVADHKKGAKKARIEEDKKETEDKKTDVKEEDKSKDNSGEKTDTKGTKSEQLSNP

As usually defined, the IC50 is the midpoint of a concentration-inhibition curve. Low values mean inhibition by little substance, high ones a need for much substance. `CCC(=O)CCCCC[C@@H]1NC(=O)[C@H](CCCCNC(C)=O)NC(=O)C[C@H](CC(C)C)NC(=O)[C@H](Cc2c[nH]c3ccccc23)NC1=O`: the fold change (FC) in the series filed under Homo sapiens [1] is 2.7 to 3.2; in the series filed under Homo sapiens [6], 1 to 1.5. Besides, the results for the Activity entry (in series [2]; in the series listed under Homo sapiens [5]) were “Toxic” and “Dose-dependent effect”, respectively. Also, the outcome in the series listed under Homo sapiens [3] was Active. The IC50 in series [4] is > 10 µM.

Consider `CC(C)C[C@H]1CC(=O)N[C@@H](C)C(=O)N[C@@H](CCCCCC(=O)O)C(=O)N[C@@H](Cc2cccc3ccccc23)C(=O)N1` (cyclo([Asu][1Nal][β3hL]A)), for which the figures for the fold change (FC) in the series filed under Homo sapiens [1] and in the series listed under Homo sapiens [6] were 1.4 to 1.5 and 1.1 to 1.6, respectively.

Regarding `CC(C)C[C@H]1CC(=O)N[C@@H](Cc2ccccc2)C(=O)N[C@@H](CCCCCC(=O)NO)C(=O)N[C@@H](Cc2c[nH]c3ccccc23)C(=O)N1` (cyclo([Asu](NHOH)W[β3hL]F)), the fold change (FC) in the series listed under Homo sapiens [1] lay in the range of 2.7 to 3.6; in the series listed under Homo sapiens [6], 1 to 1.5.

For the molecule `CCC(=O)CCCCC[C@@H]1NC(=O)[C@H](Cc2ccccc2)NC(=O)C[C@H](CC(C)C)NC(=O)[C@H](Cc2c[nH]c3ccccc23)NC1=O`, the fold change (FC) in the series filed under Homo sapiens [1] was in the range of 0.8 to 1.4; in the series filed under Homo sapiens [6] it was 0.6 to 1.

With `CCC(=O)CCCCC[C@@H]1NC(=O)[C@@H](C)n2nncc2[C@H](CC(C)C)NC(=O)[C@H](Cc2c[nH]c3ccccc23)NC1=O`, the midpoint of inhibition on Histone deacetylase 8, the IC50, lay at 0.11 µM. Also, the fold change (FC) in the series listed under Homo sapiens [1] was 0.9 to 1.1; in the series filed under Homo sapiens [6], 0.9.

For `CC(C)C[C@H]1CC(=O)N[C@@H](C)C(=O)N[C@@H](CCCCCC(=O)NO)C(=O)N[C@@H](Cc2c[nH]c3ccccc23)C(=O)N1` (cyclo([Asu](NHOH)W[β3hL]A)), the results for the fold change (FC) in the series listed under Homo sapiens [1] and in the series listed under Homo sapiens [6] were 2 to 3 and 1.4 to 2.2, respectively. On Histone deacetylase 2, this molecule showed an IC50 of 0.005 µM.

Turning to `CC(C)C[C@H]1CC(=O)N[C@@H](CCCCN)C(=O)N[C@@H](CCCCCC(=O)O)C(=O)N[C@@H](Cc2cccc3ccccc23)C(=O)N1` (cyclo([Asu][1Nal][β3hL]K)), the fold change (FC) was 0.6 to 1.1 in the series listed under Homo sapiens [1] and 1 in the series filed under Homo sapiens [6].

As to `CCC(=O)CCCCC[C@@H]1NC(=O)[C@H](C)NC(=O)C[C@H](CC(C)C)NC(=O)[C@H](Cc2cccc3ccccc23)NC1=O`, in the series filed under Homo sapiens [1], the fold change (FC) was in the range of 0.6 to 0.8.

Turning to `CCC(=O)CCCCC[C@@H]1NC(=O)[C@@H]2CCCN2C(=O)C[C@H](CC(C)C)NC(=O)[C@H](Cc2c[nH]c3ccccc23)NC1=O`, the 50% inhibitory concentration (IC50) against Histone deacetylase 8 turned out to be 1.5 µM; against Histone deacetylase 2 it was 0.04 µM. The values for the fold change (FC) in the series filed under Homo sapiens [1] and in the series listed under Homo sapiens [6] were 1.2 to 2 and 1 to 1.4, respectively.

For the molecule `CCC[C@@H]1NC(=O)[C@H](C)NC(=O)C[C@H](CC(C)C)NC(=O)[C@H](Cc2c[nH]c3ccccc23)NC1=O` (cyclo(A[Nva]W[β3hL])), the fold change (FC) in the series filed under Homo sapiens [1] is 0.7 to 0.8. Also, the half-maximal inhibitory concentration (IC50) stood at 1.58 µM against Histone deacetylase 2 and 1.44 µM at Histone deacetylase 3.

Take `CCC[C@@H]1NC(=O)[C@H](C)NC(=O)C[C@H](CC(C)C)NC(=O)[C@H](Cc2cn(CN(C)C)c3ccccc23)NC1=O`: in the series listed under Homo sapiens [1], the fold change (FC) fell in the range of 1.5 to 1.8.

In the case of `CC(C)C[C@H]1CC(=O)N[C@@H](C)C(=O)N[C@@H](CCCCCC(=O)C(F)(F)F)C(=O)N[C@@H](Cc2c[nH]c3ccccc23)C(=O)N1`, the fold change (FC) was 2.1 to 2.4 in the series filed under Homo sapiens [1] and 1.2 to 1.3 in the series filed under Homo sapiens [6]. Also, the IC50 on Histone deacetylase 2 was found to be 0.032 µM; in [4] it was 2.8 µM.
